Source: publication PMC4059234, “Edc3 Function in Yeast and Mammals Is Modulated by Interaction with NAD-Related Compounds” (G3: Genes|Genomes|Genetics, 2014)

Columns and labels:
hEdc3 = molecular target: T1, hEdc3 (Homo sapiens, UniProt Q96F86); assay: isothermal titration calorimetry ([…]°, pH […]); format: binding
T1 construct: gene EDC3; full-length hEdc3
T1 sequence (Q96F86 1-508): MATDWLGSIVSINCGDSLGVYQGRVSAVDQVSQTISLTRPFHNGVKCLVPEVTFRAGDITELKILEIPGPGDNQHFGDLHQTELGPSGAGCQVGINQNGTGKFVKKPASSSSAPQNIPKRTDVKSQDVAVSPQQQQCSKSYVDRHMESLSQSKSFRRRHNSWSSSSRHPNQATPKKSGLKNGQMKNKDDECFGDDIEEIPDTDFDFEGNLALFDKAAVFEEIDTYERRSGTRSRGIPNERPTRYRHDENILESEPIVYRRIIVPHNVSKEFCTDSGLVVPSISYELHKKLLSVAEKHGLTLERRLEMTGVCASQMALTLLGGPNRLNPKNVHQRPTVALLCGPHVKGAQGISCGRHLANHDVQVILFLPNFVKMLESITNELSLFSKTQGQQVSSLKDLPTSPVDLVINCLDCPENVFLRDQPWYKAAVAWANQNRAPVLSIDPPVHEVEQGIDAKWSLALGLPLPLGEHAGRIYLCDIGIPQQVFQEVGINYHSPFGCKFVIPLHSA

yEdc3 = molecular target: T2, yEdc3 (Saccharomyces cerevisiae, UniProt P39998); assay: thin-layer chromatography of […]-NAD incubated with recombinant protein; format: biochemical
T2 construct: gene EDC3; full-length recombinant yeast Edc3
T2 sequence (P39998 1-551): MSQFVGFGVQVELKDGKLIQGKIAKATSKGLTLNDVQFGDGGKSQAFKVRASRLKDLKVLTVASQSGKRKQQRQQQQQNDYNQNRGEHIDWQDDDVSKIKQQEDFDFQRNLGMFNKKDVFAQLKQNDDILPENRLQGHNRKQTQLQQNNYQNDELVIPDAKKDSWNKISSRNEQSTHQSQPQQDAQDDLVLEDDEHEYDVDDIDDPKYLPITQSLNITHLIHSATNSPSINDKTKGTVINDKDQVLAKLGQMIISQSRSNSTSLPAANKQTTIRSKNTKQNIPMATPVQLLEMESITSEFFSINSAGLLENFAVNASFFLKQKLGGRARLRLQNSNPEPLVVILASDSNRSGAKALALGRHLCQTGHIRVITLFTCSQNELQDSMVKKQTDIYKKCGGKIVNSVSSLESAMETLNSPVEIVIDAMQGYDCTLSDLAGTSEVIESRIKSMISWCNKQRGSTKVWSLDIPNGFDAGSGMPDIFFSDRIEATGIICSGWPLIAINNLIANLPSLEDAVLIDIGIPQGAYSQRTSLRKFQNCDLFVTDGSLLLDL

Kd (hEdc3) | Compound | thin-layer chromatography of 32P-NAD incubated with recombinant protein (yEdc3)
163 ± 27.4 µM | NC(=O)C1=CN([C@@H]2O[C@H](COP(=O)(O)OP(=O)(O)OC[C@H]3O[C@@H](n4cnc5c(N)ncnc54)[C@H](O)[C@@H]3O)[C@@H](O)[C@H]2O)C=CC1 [NADH] | –
– | NC(=O)c1ccc[n+]([C@@H]2O[C@H](COP(=O)([O-])OP(=O)(O)OC[C@H]3O[C@@H](n4cnc5c(N)ncnc54)[C@H](O)[C@@H]3O)[C@@H](O)[C@H]2O)c1 [NAD] | Incubation of yeast WT Edc3 with radiolabeled NAD gave rise to two slower migrating species
